The source of these data is paper PMC3144219, “Identification of Inhibitors against Mycobacterium tuberculosis Thiamin Phosphate Synthase, an Important Target for the Development of Anti-TB Drugs” (PLoS ONE, 2011).

For one data set, the system named is M.smegmatis mc^2155. The data set is described as follows: MIC99 determination, broth macrodilution with CFU plating. The following applies: for inhibition of M.smegmatis growth: at (up to) 750 µg/ml; for MIC99 for M.smegmatis: 24 hours, 99% inhibition of growth. Type of data set: cell-based.
For data set [1], the target named is T1, M.tuberculosis thiamin phosphate synthase (MtTPS) (Mycobacterium tuberculosis, UniProt P9WG75).
T1 sequence (P9WG75 whole entry, looked up): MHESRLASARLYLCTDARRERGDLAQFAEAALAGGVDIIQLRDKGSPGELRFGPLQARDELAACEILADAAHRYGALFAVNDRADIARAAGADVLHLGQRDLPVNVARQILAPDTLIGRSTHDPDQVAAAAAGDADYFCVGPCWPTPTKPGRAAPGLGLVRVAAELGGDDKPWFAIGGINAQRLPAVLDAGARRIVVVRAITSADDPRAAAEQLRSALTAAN
The test system of a further data set is M.tuberculosis H37Rv. The data set is described as follows: MIC99 determination in broth culture with CFU plating. Type of data set: cell-based. The following applies: 7 days, 99% inhibition of growth; for MIC99: Mycobacterium tuberculosis, H37RV, 168 h.
Data set [2] addresses T1, M.tuberculosis thiamin phosphate synthase (MtTPS). The data set is described as follows: biochemical. The following applies: for inhibition at 100 µg/mL: read-out: percent inhibition of MtTPS activity.
The subject of a further data set is Cc1ncsc1CCO. The experiment in a line: purified protein, by the assay type. The following applies: pH 7.5; 37.0 °C.

pIC50: −log10 of the molar value. ≈ marks a conversion by molar mass, not a printed value. Like-named read-outs stand apart in the source and are kept apart here.

The MIC99 is the lowest concentration that inhibits either 99% of growth or 99% of the strains tested, depending on the study. Read a high MIC99 as weaker potency. One may read the pIC50 as the negative decadic logarithm of the IC50, by convention in mol/L. Read a high pIC50 as a low IC50. Usually inhibition stands for how much of the control response was suppressed. As for `Cc1cc(O)c(C(C)C)cc1N=Cc1cc([N+](=O)[O-])ccc1O` [Compound 9, 4-{[(2-hydroxy-5-nitrophenyl)methylidene]amino}-5-methyl-2-(propan-2-yl)phenol], the “inhibition of M.smegmatis growth” value in the data set on M.smegmatis mc^2155 stood at 32% inhibition at 750 µg/ml. Moreover, the “mode of inhibition of MtTPS” value in data set [1] is “competing with HMP-PP”. For the same compound, in the data set with M.tuberculosis H37Rv, the MIC99 came out at 6 µg/mL (≈ 19.1 µM). Moreover, in data set [2], the pIC50 was 3.97 and the inhibition at 100 µg/mL was greater than 20%.

`O=C(Nc1cccc([N+](=O)[O-])c1)c1cc2ccccc2cc1O` [Compound 10, Naphtazol B]: the “inhibition of M.smegmatis growth” value with M.smegmatis mc^2155 is “No inhibition”. The “MIC99 for M.tuberculosis” value in the data set on M.tuberculosis H37Rv was 750 µg/mL.

With `CN1[C@@H]2CC[C@H]1CC(OC(c1ccccc1)c1ccccc1)C2.CS(=O)(=O)O` (stereo partly drawn) [Compound 11, 3-benzhydryloxy-8-methyl-8-azab icyclo [3.2.1]octane;methanesulfonic acid], the “MIC99 for M.smegmatis” value against M.smegmatis mc^2155 is 125 µg/mL. Further, in the data set on M.tuberculosis H37Rv, the “MIC99 for M.tuberculosis” value is 250 µg/mL.

As for `O=C(Nc1cccc([N+](=O)[O-])c1)c1ccc2ccccc2c1O` [Compound 12, 1-hydroxy-(3-nitrophenyl) naphthalene-2-carboxamide], in the data set on M.smegmatis mc^2155, the “inhibition of M.smegmatis growth” value came to 45% inhibition at 750 µg/ml. Further, in data set [1], the IC50 is given as 100 µ/ml and the “percent inhibition of MtTPS activity” value is listed as “greater than 20%”.

Turning to `c1ccc(CSc2nnc3c4ccccc4c4ccccc4c3n2)cc1` [Compound 33, 3-benzylsulfanyl phenanthro[9,10-e][1,2,4]triazine], in the data set with M.smegmatis mc^2155, the “MIC99 for M.smegmatis” value was found to be 150 µg/mL. In data set [1], the IC50 came out at 100 µ/ml and the “percent inhibition of MtTPS activity” value is “greater than 20%”. Further, the “MIC99 for M.tuberculosis” value in the data set on M.tuberculosis H37Rv is 162.5 µg/mL.

Regarding `CCN(CC)c1nc(Cl)nc(Nc2ccc3cc(-c4ccccc4)c(=O)oc3c2)n1` [Compound 35, Coumarin, 7-[[4-chloro-6-(diethylamino)-s-triazin-2-yl]amino]-3-phenyl-], in the data set with M.smegmatis mc^2155, the “inhibition of M.smegmatis growth” value was “No inhibition”. Besides, the MIC99 in the data set with M.tuberculosis H37Rv is 125 µg/mL (≈ 296 µM). Also, in data set [2], the negative logarithm of the IC50 (pIC50) was less than 3.63 and the inhibition at 100 µg/mL is greater than 20%.

By Km is commonly meant the substrate concentration at which the rate is half of its maximum. In the case of “M.tuberculosis thiamin phosphate synthase (MtTPS) (Mycobacterium tuberculosis H37Rv)”, the Km with Cc1ncsc1CCO stood at 14 µM.
